Consider 74 compounds from PubChem BioAssay AID179 (DTP/NCI, 2004).

In the test the test system is CEM cells HIV-1 protection, formazan growth assay. The test can be described thus: NCI AIDS Antiviral Assay. Particulars: for IC50: measured here: growth of uninfected CEM cells. An outline of the steps:
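Human CEM cells, uninfected and HIV-1-infected, exposed to five drug concentrations; growth measured by soluble formazan assay and scored as percent protection from infection, with protecting compounds retested.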

Calls of active or inactive are those of the source.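 The calls were made as follows: active = compounds giving half or more protection of infected cells from virus-caused growth loss, again on retest; inactive = the rest.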 Bounds are passed on as bounds.

On to `C/C(=N\NC(=S)N1CC2CCC(CC2)C1)c1cccc(C)n1`, for which the EC50 (as a rule, the concentration giving half of the maximal effect) is above 31.6 µM and the half-inhibitory concentration (IC50) (commonly the midpoint of a concentration-inhibition curve) is 0.55 µM.

For the compound `O=C1CCCC/C1=C\c1ccc(Br)cc1`, the EC50 is above 200 µM and the half-maximal inhibitory concentration (IC50) was 10.7 µM.

`Cc1ccccc1CN1CC=c2ccccc2=N1`: the EC50 is 51.3 µM and the half-maximal inhibitory concentration (IC50) came to 129 µM.

With `CCCCCCCCCCCCn1[nH]c(C)c(C(=S)SCCCCCCCC)c1=O`, the EC50 was above 57.5 µM and the half-inhibitory concentration (IC50) was 56.2 µM.

With `Cc1ncc2c(n1)NC(=O)NC2`, the EC50 is above 83.2 µM and the half-maximal inhibitory concentration (IC50) was above 83.2 µM.

Turning to `O=C1CC(CC(O)C2CCCCC2O)CC(=O)N1` (centres undefined), the EC50 was above 200 µM and the IC50 was above 200 µM.

Consider `NS(=O)(=O)c1ccc(NC(=O)/C=C/C(=O)O)cc1`, for which the EC50 is above 200 µM and the half-inhibitory concentration (IC50) is above 200 µM.

As for `O=C1C=CC=C/C1=C1\N=C(c2ccccc2OCC(=O)c2ccccc2)SS1`, the EC50 is above 50.1 µM and the IC50 turned out to be 4.27 µM.

With `N#Cc1c(-c2ccc(Cl)cc2)c(C#N)c(=O)n(NS(=O)(=O)c2ccccc2)c1S`, the EC50 is above 200 µM and the IC50 was 17 µM.

`CC1CCN(CCCCCNC(=O)C(c2ccccc2)C2CCCCC2)CC(C)(C)C1` (centres undefined): the EC50 is above 100 µM and the 50% inhibitory concentration (IC50) was 41.7 µM.

For `O=C(CN1CCN(C(=O)OCc2ccccc2)CCN(CC(=O)N2CCCCC2)CCN(C(=O)OCc2ccccc2)CC1)N1CCCCC1`, the EC50 is above 200 µM and the half-inhibitory concentration (IC50) stood at 10.2 µM.

`COc1cc(/C=C/C=C2\CC(C)C/C(=C\C=C\c3ccc(O)c(OC)c3)C2=O)ccc1O` (centres undefined): the EC50 was above 200 µM and the IC50 came to 1.41 µM.

For the compound `N#Cc1nc(C(F)(F)F)oc1N`, the result was inactive.

With `C=CC[C@]1(C(C)Cc2ccc(OC)c(OC)c2)C[C@@H](OC)C=CC1=O` (some centres undefined), the EC50 is above 10 µM and the concentration for half-maximal inhibition (IC50) stood at 2.88 µM.

As to `NC(=O)C(=CNC(=S)Nc1cccc(C(F)(F)F)c1)C(N)=O`, the EC50 is above 200 µM and the IC50 is above 200 µM.

On to `NC(CSCCCS(=O)(=O)O)C(=O)O` (centres undefined), for which the EC50 is above 200 µM and the IC50 was above 200 µM.

In the case of `CCOC(=O)/C(C1=NCCN1C)=C(\O)c1ccccc1`, the EC50 is above 912 µM and the IC50 was above 912 µM.

`CN(C(=S)Nc1ccccc1)c1cc(N2CCCC2)ccn1`: the EC50 was above 200 µM and the half-maximal inhibitory concentration (IC50) was found to be 29.5 µM.

Turning to `FC(F)(F)C[P+](c1ccccc1)(c1ccccc1)c1ccccc1`, the EC50 is above 200 µM and the IC50 was 46.8 µM.

With `O=S(=O)(O)c1ccc2c(c1)Sc1cc(S(=O)(=O)O)ccc1O2`, the outcome was inactive.

As for `C/C=C1/CN2CCc3c4n(c5ccccc35)[C@@H](CO)C1CC42` (some centres undefined), the EC50 was above 61.7 µM and the IC50 was above 61.7 µM.

With `NC(CSS(=O)(=O)O)=NC1CC1`, the EC50 is above 200 µM and the half-inhibitory concentration (IC50) was above 200 µM.

In the case of `NC(=O)C(=CNC(=S)Nc1ccccc1)C(N)=O`, the EC50 was above 200 µM and the half-inhibitory concentration (IC50) is above 200 µM.

In the case of `O=C(CC(=O)c1cccc([N+](=O)[O-])c1)C(=O)Nc1nc([N+](=O)[O-])cs1`, the EC50 is above 20 µM and the IC50 was above 20 µM.

Take `COc1ccc(CSc2nc3ccccc3nc2-c2cccs2)cc1`: the EC50 was above 3.98 µM and the IC50 was above 3.98 µM.

`CCN(CC)CC(=O)Nc1c(C)cc(C(=O)NN)cc1C`: the EC50 is above 200 µM and the concentration for half-maximal inhibition (IC50) is above 200 µM.

For `Cc1c(NC(=O)CCCl)c(=O)oc2c(C)c3occc(=O)c3cc12`, the EC50 was above 145 µM and the 50% inhibitory concentration (IC50) is 1.48 µM.

With `O=P(NC12CC3CC(CC(C3)C1)C2)(N1CC1)N1CC1`, the result was inactive.

Consider `Cc1cc(C)c(O)c(CN2CCN(C(C)C)CCN(C(C)C)CC2)c1`, for which the EC50 is above 47.9 µM and the IC50 came out at 13.8 µM.

In the case of `OC(c1ccccc1)c1cccc(C(O)c2ccccc2)c1` (centres undefined), the EC50 is above 123 µM and the half-maximal inhibitory concentration (IC50) is above 123 µM.

In the case of `CC(C)(CC1=CC(=O)C=CC1=O)Cc1ccccc1`, the EC50 was above 200 µM and the IC50 amounted to 37.2 µM.

Take `O=C1CN2C=CC=CC2=NN1`: the EC50 is above 603 µM and the concentration for half-maximal inhibition (IC50) is 407 µM.

On to `Nc1c(Cl)ncnc1NCCCNc1ncnc(Cl)c1N`, for which the result was inactive.

For the compound `CCOP(=O)(OCC)/C(C#N)=C/c1cnc(-c2ccccc2)[nH]1`, the EC50 is above 200 µM and the IC50 turned out to be 102 µM.

Regarding `O=CNc1cccc2c(=O)[nH][nH]c(=O)c12`, the EC50 is above 126 µM and the IC50 is above 126 µM.

Consider `CCCOC(=O)C(C)(C)C(OP(=O)(OCCC)OCCC)=C(C)C`, for which the EC50 is above 200 µM and the IC50 is 105 µM.

For the compound `CN(C)c1ccc(/C=C2/NC(=S)NC2=O)cc1`, the EC50 is above 200 µM and the half-inhibitory concentration (IC50) was determined as 20 µM.

For the compound `COC(=O)Cc1cc(=O)n2c([nH]c3ccccc32)c1C#N`, the EC50 was above 25.7 µM and the IC50 was above 25.7 µM.

On to `C=CCOc1cc2c(c3oc(=O)cc(CCC)c13)[C@@H](O)[C@H](C)[C@@H](C)O2`, for which the 50% effective concentration (EC50) was 6.61 µM and the IC50 amounted to 13.5 µM.

Take `Cc1cccc(N=Cc2ccc(N(CCC#N)S(=O)(=O)c3ccccc3)cc2C)c1`: the EC50 is above 224 µM and the 50% inhibitory concentration (IC50) was determined as 145 µM.

Turning to `O=c1nc(/C=C/c2ccccc2Cl)cc2n1CCN2CCO`, the outcome was inactive.

For the compound `CN=S(=O)(c1ccccc1)C1(C)CC(C)=C(C)CS1=O` (centres undefined), the EC50 is above 200 µM and the IC50 is 132 µM.

Consider `OC1(c2ccccc2)CC(c2ccccc2)c2ccccc2O1` (centres undefined), for which the EC50 is above 200 µM and the half-inhibitory concentration (IC50) is 31.6 µM.

As to `Cc1ccc(N=C2SC(c3ccc(C)cc3)(c3ccc(C)cc3)c3ccccc32)cc1`, the EC50 was above 200 µM and the 50% inhibitory concentration (IC50) is above 200 µM.

With `CCCC[As](CCCC)SC1CCC2(C)C(=CCC3C4CCC(=O)C4(C)CCC32)C1` (centres undefined), the EC50 was above 46.8 µM and the half-inhibitory concentration (IC50) turned out to be 15.8 µM.

As to `CC1(C)COC(c2c(-c3ccccc3)noc2CS(=O)c2ccccc2)=N1` (centres undefined), the EC50 was above 100 µM and the half-inhibitory concentration (IC50) stood at 42.7 µM.

With `O=S(=O)(c1ccc(F)cc1)c1ccc(F)cc1`, the EC50 is above 200 µM and the half-inhibitory concentration (IC50) is above 200 µM.

As for `O=C(O)CCc1cccc2c1oc1c(CCC(=O)O)cccc12`, the EC50 is above 794 µM and the IC50 came to 191 µM.

Regarding `Cc1cc(NCCO)nc2c1ccc1ccccc12`, the EC50 was above 141 µM and the IC50 worked out at 22.4 µM.

With `COC(Cc1ccccc1)NC(=O)[C@@]12CCCC[C@@H]1C=Cc1ccccc12` (some centres undefined), the EC50 was above 55 µM and the half-maximal inhibitory concentration (IC50) was 22.9 µM.

Turning to `O=C1CCC2(CC1CC(Sc1ccccc1)Sc1ccccc1)OCCO2` (centres undefined), the EC50 was above 200 µM and the half-inhibitory concentration (IC50) amounted to 41.7 µM.

For the compound `CCCSc1nc(-c2ccc(OC)cc2)c(C#N)c(=O)n1C1OC(COC(C)=O)C(OC(C)=O)C(OC(C)=O)C1OC(C)=O` (centres undefined), the EC50 was above 200 µM and the concentration for half-maximal inhibition (IC50) was above 200 µM.

Consider `COC(=O)C12CCC(C(=O)OC)(CC1)n1c(=O)n(-c3ccccc3)c(=O)n12`, for which the EC50 is above 200 µM and the half-inhibitory concentration (IC50) is above 200 µM.

In the case of `CCCOC(=O)c1ccc(N)cc1`, the EC50 is above 200 µM and the IC50 was above 200 µM.

For the compound `CCN(CC)c1c(C)nnc2c3c(-c4ccccc4)c(-c4ccccc4)nnc3nn12`, the EC50 was above 200 µM and the IC50 was above 200 µM.

Consider `CCOC(=O)c1cc(C(=O)c2ccccc2)n2nc(-c3ccc(Cl)cc3)ccc12`, for which the EC50 was above 50.1 µM and the IC50 is above 50.1 µM.

As to `O=C(NCCCCCCCCNC(=O)c1cc(O)c(O)c(O)c1)c1cc(O)c(O)c(O)c1`, the EC50 was above 100 µM and the half-inhibitory concentration (IC50) stood at 13.8 µM.

In the case of `CCN(CC)CCOc1ccc(/C(C#N)=C/c2ccc(OCCN3CCCCC3)cc2)cc1`, the EC50 was above 200 µM and the IC50 turned out to be 0.832 µM.

On to `CC1(Cl)C(=O)NC(=O)NC1O` (centres undefined), for which the EC50 was above 200 µM and the concentration for half-maximal inhibition (IC50) is above 200 µM.

Turning to `COc1ccc(-c2nc(-c3cnccn3)n(C/C=C/c3ccccc3)n2)cc1`, the EC50 is 64.6 µM and the IC50 was above 200 µM.

For the compound `C=CC1(C)CC(=O)C2(O)C(O1)C(OC(C)=O)C(OC(C)=O)C1C2C(OC(C)=O)CCC1(C)C` (centres undefined), the EC50 was above 26.9 µM and the IC50 was above 26.9 µM.

For the compound `CC(C)=CCN(N=O)c1ncnc2nc[nH]c12`, the EC50 is above 200 µM and the IC50 is above 200 µM.

As to `O=C1NC(=O)C(CCN2CCCCC2)(c2ccccc2)C(=O)N1`, the EC50 is above 200 µM and the concentration for half-maximal inhibition (IC50) is above 200 µM.

Consider `N[C@@H]1C(CO)NC[C@@H]1CO` (some centres undefined), for which the EC50 is above 200 µM and the IC50 is above 200 µM.

On to `CCOC(=O)c1ccc(N2C(=S)N(C(=O)c3ccccc3)C(=Nc3ccccc3)C2=Nc2ccccc2)cc1`, for which the EC50 was above 200 µM and the half-inhibitory concentration (IC50) came out at 2.82 µM.

`CCOC(=O)c1c(NCc2ccccc2)n(-c2ccccc2)c(=S)n(-c2ccccc2)c1=O`: the EC50 was above 40.7 µM and the IC50 was determined as 30.2 µM.

Take `COC1(OC)CC2C(=O)N(Cc3ccccc3)C1C(S(=O)(=O)c1ccccc1)C2S(=O)(=O)c1ccccc1` (centres undefined): the outcome was inactive.

As for `Cn1c(=O)c2c(nc3n2CCCC(=O)N3CCCCl)n(C)c1=O`, the EC50 is above 100 µM and the half-maximal inhibitory concentration (IC50) is above 100 µM.

Regarding `CCOC(=O)Cc1csc2[n+]1C(=O)/C(=C\c1cccc(Cl)c1Cl)S2`, the EC50 was above 200 µM and the concentration for half-maximal inhibition (IC50) turned out to be 21.4 µM.

As for `S=c1ssc2ccccc12`, the EC50 is above 97.7 µM and the IC50 was 91.2 µM.

For `Nc1ncc(C2[C@H](CNC(=O)c3cc(Br)c[nH]3)C(CNC(=O)c3cc(Br)c[nH]3)[C@@H]2c2cnc(N)[nH]2)[nH]1` (some centres undefined), the outcome was active.

For `CCN1C[C@]2(COC)CCC(OC(=O)c3ccc(OC)cc3)C34[C@@H]5C[C@@H]6C(OC(C)=O)[C@@H]5[C@](OC(C)=O)(C[C@@H]6OC)[C@@H](C(OC)[C@@H]32)[C@H]14` (some centres undefined), the outcome was inactive.

On to `COc1ccc(NS(=O)(=O)c2ccc3ncn(NS(=O)(=O)c4ccc(I)cc4)c(=O)c3c2)cc1`, for which the result was inactive.

For `Nc1ccc2c(c1)Oc1ccc(N)cc1O2`, the EC50 was above 200 µM and the IC50 is above 200 µM.
